US20250340574A1, “MODULATORS OF CYSTIC FIBROSIS TRANSMEMBRANE CONDUCTANCE REGULATOR” (Vertex Pharmaceuticals Incorporated, priority 2022, published 2025)

Biological target: T1, CFTR (F508del/MF-HBE cells) (Homo sapiens, UniProt P13569, DEL508-508)
T1 construct: human bronchial epithelial (HBE) cells derived from CF subjects heterozygous for F508del and a minimal function CFTR mutation (F508del/MF-HBE); endogenous in cells; host or cells: Primary human bronchial epithelial cells from CF subjects (F508del/MF genotype), differentiated at an air-liquid interface
T1 sequence (P13569 with tags, fused parts or gaps DEL508-508): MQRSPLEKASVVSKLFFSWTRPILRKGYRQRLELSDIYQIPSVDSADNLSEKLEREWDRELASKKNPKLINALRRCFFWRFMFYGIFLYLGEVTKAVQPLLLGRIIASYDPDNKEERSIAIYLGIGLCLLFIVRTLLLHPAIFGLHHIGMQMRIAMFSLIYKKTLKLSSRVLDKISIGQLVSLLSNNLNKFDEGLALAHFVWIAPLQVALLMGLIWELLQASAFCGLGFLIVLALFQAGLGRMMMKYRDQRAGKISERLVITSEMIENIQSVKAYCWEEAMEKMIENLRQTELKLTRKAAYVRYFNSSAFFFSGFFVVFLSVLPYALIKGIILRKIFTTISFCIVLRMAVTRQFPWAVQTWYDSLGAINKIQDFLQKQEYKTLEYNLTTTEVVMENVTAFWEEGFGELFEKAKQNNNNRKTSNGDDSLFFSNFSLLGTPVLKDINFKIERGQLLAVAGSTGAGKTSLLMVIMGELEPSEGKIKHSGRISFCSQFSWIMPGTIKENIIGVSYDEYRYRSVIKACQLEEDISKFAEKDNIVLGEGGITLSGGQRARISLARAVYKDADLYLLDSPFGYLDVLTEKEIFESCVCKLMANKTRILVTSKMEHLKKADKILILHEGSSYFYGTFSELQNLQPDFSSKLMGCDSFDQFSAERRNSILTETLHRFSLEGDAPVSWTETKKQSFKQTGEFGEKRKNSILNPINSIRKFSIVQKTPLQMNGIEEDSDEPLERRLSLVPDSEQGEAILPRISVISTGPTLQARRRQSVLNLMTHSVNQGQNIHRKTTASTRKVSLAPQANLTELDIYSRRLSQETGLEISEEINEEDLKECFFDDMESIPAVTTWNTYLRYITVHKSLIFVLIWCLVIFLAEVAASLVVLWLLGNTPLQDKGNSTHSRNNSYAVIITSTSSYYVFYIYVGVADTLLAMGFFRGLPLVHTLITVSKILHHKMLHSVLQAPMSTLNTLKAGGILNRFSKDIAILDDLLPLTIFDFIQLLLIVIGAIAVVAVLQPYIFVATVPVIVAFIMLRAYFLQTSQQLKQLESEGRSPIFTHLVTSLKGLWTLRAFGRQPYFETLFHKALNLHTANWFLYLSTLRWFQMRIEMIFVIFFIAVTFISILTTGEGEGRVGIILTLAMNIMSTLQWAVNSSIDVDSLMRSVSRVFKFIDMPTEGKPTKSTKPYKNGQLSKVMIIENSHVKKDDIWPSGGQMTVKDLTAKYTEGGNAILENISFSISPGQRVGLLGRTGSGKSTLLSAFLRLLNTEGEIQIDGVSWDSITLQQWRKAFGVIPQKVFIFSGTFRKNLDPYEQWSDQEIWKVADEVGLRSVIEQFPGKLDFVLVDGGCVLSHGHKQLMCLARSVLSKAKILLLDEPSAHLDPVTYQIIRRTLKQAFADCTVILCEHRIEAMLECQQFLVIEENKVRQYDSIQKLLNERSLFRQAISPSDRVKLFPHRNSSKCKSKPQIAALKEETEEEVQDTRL
Assay: Ussing chamber assay of CFTR-mediated short-circuit currents, Assay A (0.1 μM to 25 μM, 6 concentrations)
Assay type: cell-based
Conditions: with 33 nM potentiator and 18 μM Tezacaftor, 20% human serum; for Emax: 18-24 hours, read-out: A Max activity (%)
Description: Ussing chamber experiments were performed using human bronchial epithelial (HBE) cells derived from CF subjects heterozygous for F508del and a minimal function CFTR mutation (F508del/MF-HBE) and cultured as previously described (Neuberger T, Burton B, Clark H, Van Goor F Methods Mol Biol 2011:741:39-54). After four days the apical media was removed, and the cells were grown at an air liquid interface for >14 days prior to use.
To isolate the CFTR-mediated short-circuit (ISC) current, F508del/MF-HBE grown on Costar® Snapwell™ cell culture inserts were mounted in an Ussing chamber and the transepithelial ISC was measured under voltage-clamp recording conditions (Vhold=0 mV) at 37° C. The basolateral solution contained (in mM) 145 NaCl, 0.83 K2HPO4, 3.3 KH2PO4, 1.2 MgCl2, 1.2 CaCl2, 10 Glucose, 10 HEPES (pH adjusted to 7.4 with NaOH) and the apical solution contained (in mM) 145 NaGluconate, 1.2 MgCl2, 1.2 CaCl2, 10 glucose, 10 HEPES (pH adjusted to 7.4 with NaOH) and 30 μM amiloride to block the epithelial sodium channel. Forskolin (20 μM) was added to the apical surface to activate CFTR, followed by apical addition of a CFTR inhibitor cocktail consisting of BPO, GlyH-101, and CFTR inhibitor 172 (each at 20 μM final assay concentration) to specifically isolate CFTR currents. The CFTR-mediated ISC (μA/cm^2) for each condition was determined from the peak forskolin response to the steady-state current following inhibition.
The activity of the CFTR corrector compounds on the CFTR-mediated ISC was determined in Ussing chamber studies as described above. The F508del/MF-HBE cell cultures were either incubated with the corrector compounds at a range of concentrations in combination with 33 nM (6R,12R)-17-amino-12-methyl-6,15-bis(trifluoromethyl)-13,19-dioxa-3,4,18-triazatricyclo[12.3.1.12,5]nonadeca-1(18),2,4,14,16-pentaen-6-ol and 18 μM Tezacaftor or were incubated with the corrector compounds at a single fixed concentration of 1 μM in combination with 44 nM (6R,12R)-17-amino-12-methyl-6,15-bis(trifluoromethyl)-13,19-dioxa-3,4,18-triazatricyclo[12.3.1.12,5]nonadeca-1(18),2,4,14,16-pentaen-6-ol and 18 μM Tezacaftor for 18-24 hours at 37° C. and in the presence of 20% human serum. The concentration of corrector compounds with 44 nM or 33 nM (6R,12R)-17-amino-12-methyl-6,15-bis(trifluoromethyl)-13,19-dioxa-3,4,18-triazatricyclo[12.3.1.12,5]nonadeca-1(18),2,4,14,16-pentaen-6-ol and 18 μM Tezacaftor during the 18-24 hours incubations was kept constant throughout the Ussing chamber measurement of the CFTR-mediated ISC to ensure compounds were present throughout the entire experiment. The efficacy and potency of the putative F508del correctors was compared to that of the known Vertex corrector, (14S)-8-[3-(2-{Dispiro[2.0.2.1]heptan-7-yl}ethoxy)-1H-pyrazol-1-yl]-12,12-dimethyl-2λ^6-thia-3,9,11,18,23-pentaazatetracyclo[17.3.1.111,14.05,10]tetracosa-1(22),5,7,9,19(23),20-hexaene-2,2,4-trione, in combination with 18 μM Tezacaftor and 1 μM Ivacaftor.
• Assay A: 0.1 μM to 25 μM, 6 concentrations • Assay B: 0.00001 μM to 25 μM, 12 concentrations • Assay C: 0.026 μM to 25 μM, 6 concentrations • Assay D: Activity at single concentration of 1 μM

Structure (SMILES)	Emax	EC50
Cc1cccc(C)c1-c1cc2nc(n1)NS(=O)(=O)c1cccc(c1)C(=O)N(Cc1cnc3oc(C(C)C)cc3n1)[C@H](CC1CCCO1)CO2 (single isomer, unassigned) [Compound I-18]	> 60%	< 1000 nM
Cc1cccc(C)c1-c1cc2nc(n1)NS(=O)(=O)c1cccc(c1)C(=O)N(Cc1cnc3oc(C(C)C)cc3n1)[C@H](CCC(C)(C)F)CO2 (single isomer, unassigned) [Compound I-36]	> 60%	< 1000 nM
Cc1cccc(C)c1-c1cc2nc(n1)NS(=O)(=O)c1cccc(c1)C(=O)N(Cc1cnc3oc(C(C)C)cc3n1)C(COC1CCC1)CO2 (single isomer, unassigned) [Compound I-49, 11-(cyclobutoxymethyl)-6-(2,6-dimethylphenyl)-12-[(6-isopropylfuro[2,3-b]pyrazin-2-yl)methyl]-2,2-dioxo-9-oxa-2λ^6-thia-3,5,12,19-tetrazatricyclo[12.3.1.14,8]nonadeca-1(18),4(19),5,7,14,16-hexaen-13-one]	> 60%	< 1000 nM
Cc1cccc(C)c1-c1cc2nc(n1)NS(=O)(=O)c1cccc(c1)C(=O)N(Cc1cnc3c(n1)CC(C(C)C)O3)[C@H](CC1(C)CC1)CO2 (single isomer, unassigned) [III-13]	> 60%	< 1000 nM
Cc1cccc(C)c1-c1cc2nc(n1)NS(=O)(=O)c1cccc(c1)C(=O)N(Cc1cnc3c(n1)CC(C(C)C)O3)[C@H](CC1(C)CC1)CO2 (single isomer, unassigned) [III-14]		< 1000 nM
Cc1cccc(C)c1-c1cc2nc(n1)NS(=O)(=O)c1cccc(c1)C(=O)N(Cc1cnc3cc(C(C)C)n(C)c3n1)[C@H](C[C@@H]1CCCO1)CO2 (stereo in doubt) [Compound I-16]	> 60%	< 1000 nM
Cc1cccc(C)c1-c1cc2nc(n1)NS(=O)(=O)c1cccc(c1)C(=O)N(Cc1cnc3oc(C4CC4)cc3n1)[C@H](C[C@H]1CCCCO1)CO2 (stereo in doubt) [Compound I-44]	> 60%	< 1000 nM
Cc1cccc(C)c1-c1cc2nc(n1)NS(=O)(=O)c1cccc(c1)C(=O)N(Cc1cnc3oc(C4CC4)cc3n1)[C@@H](COC1CCC1)CO2 (stereo in doubt) [Compound I-58]	> 60%	< 1000 nM
Cc1cccc(C)c1-c1cc2nc(n1)NS(=O)(=O)c1cccc(c1)C(=O)N(Cc1cnc3cc(C(C)C)n(C)c3n1)[C@@H](CCC1(C)CC1)CO2 (stereo in doubt) [Compound I-72]	> 60%	< 1000 nM
Cc1cccc(C)c1-c1cc2nc(n1)NS(=O)(=O)c1cccc(c1)C(=O)N(Cc1nc3c(cc1F)cc(C(C)C)n3C)[C@@H](COC1CCC1)CO2 (stereo in doubt) [Compound I-84]	> 60%	< 1000 nM
Cc1cccc(C)c1-c1cc2nc(n1)NS(=O)(=O)c1cccc(c1)C(=O)N(Cc1cnc3oc(C(C)C)c(C)c3n1)[C@@H](COC1CCC1)CO2 (stereo in doubt) [Compound I-93]	> 60%	< 1000 nM
Cc1cccc(C)c1-c1cc2nc(n1)NS(=O)(=O)c1cccc(c1)C(=O)N(Cc1nc3cc(C(C)C)oc3cc1F)[C@@H](COC1CCC1)CO2 (stereo in doubt) [Compound I-95]	> 60%	< 1000 nM
Cc1cccc(C)c1-c1cc2nc(n1)NS(=O)(=O)c1cccc(c1)C(=O)N(Cc1cnc3oc(C(C)C)cc3n1)[C@H](CC(C)C)CO2 [Compound I-1]	> 60%	< 1000 nM
Cc1cccc(C)c1-c1cc2nc(n1)NS(=O)(=O)c1cccc(c1)C(=O)N(Cc1cnc3oc(C(C)C)cc3n1)[C@H](CCC(C)C)CO2 [Compound I-2]	> 60%	< 1000 nM
Cc1cccc(C)c1-c1cc2nc(n1)NS(=O)(=O)c1cccc(c1)C(=O)N(Cc1cnc3cc(C(C)C)n(C)c3n1)[C@H](C[C@H]1CCCCO1)CO2 [Compound I-3]	> 60%	< 1000 nM
Cc1cccc(C)c1-c1cc2nc(n1)NS(=O)(=O)c1cccc(c1)C(=O)N(Cc1cnc3oc(C(C)C)c(C)c3n1)[C@H](CC(C)(C)C)CO2 [Compound I-4]	> 60%	< 1000 nM
Cc1cccc(C)c1-c1cc2nc(n1)NS(=O)(=O)c1cccc(c1)C(=O)N(Cc1nc3c(cc1F)cc(C(C)C)n3C)[C@H](CC(C)(C)C)CO2 [Compound I-6]	> 60%	< 1000 nM
Cc1cccc(C)c1-c1cc2nc(n1)NS(=O)(=O)c1cccc(c1)C(=O)N(Cc1cnc3oc(C(C)C)cc3n1)[C@H](C[C@H]1CCCCO1)CO2 [Compound I-7]	> 60%	< 1000 nM
Cc1cccc(C)c1-c1cc2nc(n1)NS(=O)(=O)c1cccc(c1)C(=O)N(Cc1cnc3oc(C(C)C)cc3n1)[C@H](CC1CCCCC1)CO2 [Compound I-9]	> 60%	< 1000 nM
Cc1cccc(C)c1-c1cc2nc(n1)NS(=O)(=O)c1cccc(c1)C(=O)N(Cc1cnc3oc(C(C)C)c(C)c3n1)[C@H](COC(C)C)CO2 [Compound I-10]	> 60%	< 1000 nM
Cc1cccc(C)c1-c1cc2nc(n1)NS(=O)(=O)c1cccc(c1)C(=O)N(Cc1cnc3oc(C(C)C)c(C)c3n1)[C@H](CCC(C)(C)C)CO2 [Compound I-11]	> 60%	< 1000 nM
Cc1cccc(C)c1-c1cc2nc(n1)NS(=O)(=O)c1cccc(c1)C(=O)N(Cc1cnc3oc(C(C)C)c(C)c3n1)[C@H](CC1CCCCC1)CO2 [Compound I-12]	> 60%	< 1000 nM
Cc1cccc(C)c1-c1cc2nc(n1)NS(=O)(=O)c1cccc(c1)C(=O)N(Cc1cnc3oc(C(C)C)c(C)c3n1)[C@H](CC1(C)CC1)CO2 [Compound I-17]	> 60%	< 1000 nM
Cc1cccc(C)c1-c1cc2nc(n1)NS(=O)(=O)c1cccc(c1)C(=O)N(Cc1cnc3oc(C(C)C)c(C)c3n1)[C@H](CCC(C)C)CO2 [Compound I-19]	> 60%	< 1000 nM
Cc1cccc(C)c1-c1cc2nc(n1)NS(=O)(=O)c1cccc(c1)C(=O)N(Cc1cnc3oc(C4CC4)cc3n1)[C@H](CC(C)(C)C)CO2 [Compound I-20]	> 60%	< 1000 nM
Cc1cccc(C)c1-c1cc2nc(n1)NS(=O)(=O)c1cccc(c1)C(=O)N(Cc1cnc3oc(C4CC4)cc3n1)[C@H](CC1(C)CC1)CO2 [Compound I-25]	> 60%	< 1000 nM
Cc1cccc(C)c1-c1cc2nc(n1)NS(=O)(=O)c1cccc(c1)C(=O)N(Cc1cnc3oc(C)c(C4CC4)c3n1)[C@H](CCC(C)(C)C)CO2 [Compound I-27]	> 60%	< 1000 nM
Cc1cccc(C)c1-c1cc2nc(n1)NS(=O)(=O)c1cccc(c1)C(=O)N(Cc1cnc3oc(C(C)C)cc3n1)[C@H](CC1CCOCC1)CO2 [Compound I-30, (11R)-6-(2,6-dimethylphenyl)-12-[(6-isopropylfuro[2,3-b]pyrazin-2-yl)methyl]-2,2-dioxo-11-(tetrahydropyran-4-ylmethyl)-9-oxa-2λ^6-thia-3,5,12,19-tetrazatricyclo[12.3.1.14,8]nonadeca-1(18),4(19),5,7,14,16-hexaen-13-one]	30 to 60%	< 1000 nM
Cc1cccc(C)c1-c1cc2nc(n1)NS(=O)(=O)c1cccc(c1)C(=O)N(Cc1cnc3oc(C(C)C)c(C)c3n1)[C@H](CCC1(C)CCC1)CO2 [Compound I-34]	> 60%	< 1000 nM
Cc1cccc(C)c1-c1cc2nc(n1)NS(=O)(=O)c1cccc(c1)C(=O)N(Cc1cnc3oc(C(C)C)cc3n1)[C@H](CC(C)(C)F)CO2 [Compound I-35]	> 60%	< 1000 nM
